Series [1] can be described thus: Therapeutic index (ratio between upper/lower bounds of therapeutic window). The series is classed as in vivo. As to the method: In various example embodiments, dosing is determined using some or all the steps of method 300 for medicaments listed in the following tables. For each medicament listed, a concentration window W or therapeutic index is listed in a third column. The therapeutic index (TI, also referred to as therapeutic ratio) is a quantitative measurement of the relative safety of a drug. It is a comparison of the amount of a therapeutic agent that causes the therapeutic effect to the amount that causes toxicity. As proposed herein, a cost function g(y) is based, at least in part, on a value in this third column. The Koopman Expectation is used in Equation 11 or Equation 12 with a quadrature procedure to deduce an optimum range or subset of the dosing range listed in the second column.

For series [2] the following is noted: cited from earlier work; for Concentration range: Table 1 anti-epileptics, * uncertain reference range, ** well defined toxic range.
The conditions of series [3]: Table 1 anti-epileptics; printed in place of a dose range; cited from earlier work.

Where two headings read alike, the source gives them in different places.

As for `Cc1ccsc1C(=CCCN1CCC[C@@H](C(=O)O)C1)c1sccc1C` [Tiagabine], the Therapeutic index in series [1] (Table 7 antiepileptics) was 10. Further, in series [2], the Concentration range entry is listed as “(0.02-0.2 mg/L)*”. Also, the Therapeutic window in series [2] (Table 7 antiepileptics) is 0.02 to 0.2 mg/L.
Consider `CC[C@@H](C(N)=O)N1CCCC1=O` [Levetiracetam], for which, in series [2], the Concentration range entry is listed as “(12-46 mg/L)”.
Consider `CO[C@H]1C[C@@H]2CC[C@@H](C)[C@@](O)(O2)C(=O)C(=O)N2CCCC[C@H]2C(=O)O[C@H]([C@H](C)C[C@@H]2CC[C@@H](OCCO)[C@H](OC)C2)CC(=O)[C@H](C)/C=C(\C)[C@@H](O)[C@@H](OC)C(=O)[C@H](C)C[C@H](C)/C=C/C=C/C=C/1C` [Everolimus], for which the “Small change in concentration may lead to failure/serious AE (concentration range)” value in series [2] (Table 4 immunosuppressants) is on record as “(3-8 ng/mL)”.
As to `CC1(C)O[C@@H]2[C@@H](CO[C@@]3(COS(N)(=O)=O)OC(C)(C)O[C@@H]23)O1` [Topiramate], in series [1] (Table 7 antiepileptics), the Therapeutic index is given as 4. In series [2], the Concentration range entry was “(5-20 mg/L)”. In series [2] (Table 7 antiepileptics), the Therapeutic window is 5 to 20 mg/L.
As to `NC(=O)N1c2ccccc2C=Cc2ccccc21` [Carbamazepine], the Therapeutic index in series [1] (Table 7 antiepileptics) is 3. Also, the Therapeutic window in series [2] (Table 7 antiepileptics) was 4 to 12 mg/L.
On to `CC1CNc2c(cccc2S(=O)(=O)N[C@@H](CCCNC(=N)N)C(=O)N2CC[C@@H](C)C[C@@H]2C(=O)O)C1` (stereo partly shown) [Argatroban], for which, in series [1] (Table 5 anticoagulants), the Therapeutic index came to 1.7.
Turning to `CCC1(c2ccccc2)C(=O)NC(=O)NC1=O` [Phenobarbital], the Concentration range entry in series [2] is given as “(10-40 mg/L)”.
`COc1c(C)c2c(c(O)c1C/C=C(\C)CCC(=O)O)C(=O)OC2` [Mycophenolate]: in series [2] (Table 4 immunosuppressants, not in label), the “Small change in concentration may lead to failure/serious AE (exposure range)” value was “(30-60 mg*h/L”.
As for `NC(=O)OCC(COC(N)=O)c1ccccc1` [Felbamate], the Therapeutic index in series [1] (Table 7 antiepileptics) is listed as 2. For the same compound, the Concentration range entry in series [2] was “(30-60 mg/L)*”. Further, the Therapeutic window in series [2] (Table 7 antiepileptics) is 30 to 60 mg/L.
As for `Nc1nnc(-c2cccc(Cl)c2Cl)c(N)n1` [Lamotrigine], in series [1] (Table 7 antiepileptics), the Therapeutic index stood at 4.7. Also, the Concentration range entry in series [2] is recorded as “(3-14 mg/L)”. The Therapeutic window in series [2] (Table 7 antiepileptics) was 3 to 14 mg/L.
`C=CC[C@@H]1/C=C(\C)C[C@H](C)C[C@H](OC)[C@H]2O[C@@](O)(C(=O)C(=O)N3CCCC[C@H]3C(=O)O[C@H](/C(C)=C/[C@@H]3CC[C@@H](O)[C@H](OC)C3)[C@H](C)[C@@H](O)CC1=O)[C@H](C)C[C@@H]2OC` [Tacrolimus]: the “Small change in concentration may lead to failure/serious AE (concentration range)” value in series [2] (Table 4 immunosuppressants) is given as “(5-15 ng/mL)”.
Consider `O=C1CN=C(c2ccccc2Cl)c2cc([N+](=O)[O-])ccc2N1` [Clonazepam], for which, in series [2], the Concentration range result is given as “(0.02-0.07 mg/L)”.
Regarding `O=C1NC(=O)C(c2ccccc2)(c2ccccc2)N1` [Phenytoin], the Therapeutic index in series [1] (Table 7 antiepileptics) is 2. Besides, the “Dose range: PK note” value in series [3] is recorded as “(non-linear PK)”. In addition, the Concentration range entry in series [2] is “(10-20 mg/L)”. For the same compound, the Therapeutic window in series [2] (Table 7 antiepileptics) is 10 to 20 mg/L.
As for `CN1C(=O)CC(=O)N(c2ccccc2)c2cc(Cl)ccc21` [Clobazam], in series [2], the Concentration range result was “(0.03-0.3 mg/L)”.
With `NCC1(CC(=O)O)CCCCC1` [Gabapentin], in series [2], the Concentration range result is “(2-20 mg/L)”.
On to `[H]/N=C(/N)c1ccc(NCc2nc3cc(C(=O)N(CCC(=O)O)c4ccccn4)ccc3n2C)cc1` [Dabigatran], for which the Therapeutic index in series [1] (Table 5 anticoagulants) came out at 1.7. Moreover, the Concentration/biomarker range result in series [2] (Table 2 anticoagulants) is on record as “(60-200 mg/L or”.
Consider `CCC1(c2ccccc2)C(=O)NCNC1=O` [Primidone], for which, in series [2], the Concentration range entry is listed as “(5-10 mg/L)”.
Consider `CCC1(C)CC(=O)NC1=O` (stereo not shown) [Ethosuximide], for which, in series [2], the Concentration range entry is given as “(40-100 mg/L)”.
On to `C[C@H]1O[C@@H](O[C@H]2[C@@H](O)C[C@H](O[C@H]3[C@@H](O)C[C@H](O[C@H]4CC[C@@]5(C)[C@H](CC[C@@H]6[C@@H]5C[C@@H](O)[C@]5(C)[C@@H](C7=CC(=O)OC7)CC[C@]65O)C4)O[C@@H]3C)O[C@@H]2C)C[C@H](O)[C@@H]1O` [Digoxin], for which the Concentration/biomarker range result in series [2] (Table 3 antiarrhythmics, AF) is “(0.8-2: AF”; in series [2] (Table 3 antiarrhythmics, Cl), 0.5-1: Cl).
For `NS(=O)(=O)Cc1noc2ccccc12` [Zonisamide], in series [1] (Table 7 antiepileptics), the Therapeutic index came to 4. In series [2], the Concentration range result is listed as “(10-40 mg/L)**”. Also, in series [2] (Table 7 antiepileptics), the Therapeutic window is 10 to 40 mg/L.
As to `CC(=O)CC(c1ccccc1)c1c(O)c2ccccc2oc1=O` (stereo not shown) [Warfarin], in series [1] (Table 5 anticoagulants), the Therapeutic index was 1.5.
Consider `C=CC(N)CCC(=O)O` (stereo not shown) [Vigabatrin], for which the Concentration range result in series [2] was “(0.8-36 mg/L)”.
For the compound `C=C[C@H]1C[N@@]2CC[C@H]1C[C@@H]2[C@@H](O)c1ccnc2ccc(OC)cc12` [Quinidine], the Therapeutic index in series [1] (Table 6 antiarrhythmics) is listed as 2.5. The Concentration/biomarker range entry in series [2] (Table 3 antiarrhythmics) is on record as “(2-5 mg/L)”. The Therapeutic window in series [2] (Table 6 antiarrhythmics) was 2 to 5 mg/L.
Consider `CCCC(CCC)C(=O)O` [Valproic acid], for which, in series [1] (Table 7 antiepileptics), the Therapeutic index stood at 2. Further, the “Dose range: PK note” value in series [3] is listed as “(non-linear PK)”. In addition, in series [2], the Concentration range result is reported as “(50-100 mg/L)”. Further, the Therapeutic window in series [2] (Table 7 antiepileptics) is 50 to 100 mg/L.
For `CO[C@H]1C[C@@H]2CC[C@@H](C)[C@@](O)(O2)C(=O)C(=O)N2CCCC[C@H]2C(=O)O[C@H]([C@H](C)C[C@@H]2CC[C@@H](O)[C@H](OC)C2)CC(=O)[C@H](C)/C=C(\C)[C@@H](O)[C@@H](OC)C(=O)[C@H](C)C[C@H](C)/C=C/C=C/C=C/1C` [Sirolimus], in series [2] (Table 4 immunosuppressants), the “Small change in concentration may lead to failure/serious AE (concentration range)” value is recorded as “(12-20 ng/mL)”.

Source of the values: US20220375563A1, “METHOD AND APPARATUS FOR INDIVIDUALIZED ADMINISTRATION OF MEDICAMENTS FOR ENHANCED SAFE DELIVERY WITHIN A THERAPEUTIC RANGE” (UNIVERSITY OF MARYLAND, BALTIMORE, priority 2019, published 2022).
